Results taken from PMC2984425, “Safety and pharmacokinetics of novel selective vascular endothelial growth factor receptor-2 inhibitor YN968D1 in patients with advanced malignancies” (BMC Cancer, 2010).
Like-named read-outs stand apart in the source and are kept apart here.

Tests used:
advanced solid tumors = assay: Tumor response by RECIST; assay type: in vivo, human
Method: Patients with measurable disease at baseline were evaluated for tumor response according to the Response Evaluation Criteria for Solid Tumors (RECIST). Radiographic studies (CT scan or MRI) for disease assessment were conducted at baseline and every 2 cycles (8 weeks) thereafter. The best overall response was reported. Disease control rate was defined as the percentage of patients with complete response (CR), partial response (PR), and stable disease (SD) for at least 8 weeks. The duration of overall response was defined as the period from the initial measurement of complete response (CR) or partial response (PR), whichever occurred first, to the first date of documented disease recurrence or progression. The same method and techniques of assessment were used to characterize each identified and reported lesion at baseline and at subsequent evaluations.

xenograft = tested on: xenograft; parameters: method as in ref 8 = [8]; Chen P Iruela-Arispe L Lou L Sun P Yuan K VEGFr inhibitor YN968D1 xenograft dose response studies against human colon cancer Ls174t and HT29 Proc Amer Assoc Cancer Res 2006 47 abst 1764; conditions: xenograft study; cited from earlier work
[1] = Plasma pharmacokinetics after single and multiple oral doses (LC-MS/MS, non-compartmental analysis); assay type: in vivo, human; conditions: for Cmax / half-life / AUC(0-t) / Tmax: human, plasma; for AUC(0-t): read-out: AUC0-24, geometric mean; for Tmax: read-out: tmax, median
Method: The phase I study was designed in accordance with the Chinese State Food and Drug Administration (SFDA) recommendations (Guidance for Industry, 2005). PK evaluations were to be performed for single-dosing and multiple-dosing of which the dose levels were determined after completion of dose-escalation. Three dose levels (low, intermediate and high dose) for single-dosing and one dose level (the recommended dose for phase II) for multiple-dosing study, between 8 to 12 participants for each dose levels, were required to meet the SFDA guidance. A cross-over design to evaluate the effects of food intake was incorporated into the single-dosing assessment, also meeting the SFDA requirement, but data will be presented separately. […] Whole blood samples (1 ml) were collected at 0 (predose), 0.5, 1, 2, 3, 4, 6, 8, 12, 24, 32, and 48 hours for single-dosing evaluation and 0, 0.5, 1, 2, 3, 4, 6, 8, 12, and 24 hours (before the next dose) on days 1, 6, 28, and 56 for multiple-dosing evaluation. After the last dose on day 56, two additional samples were collected at 32 and 48 hours for multiple-dosing assessment. Plasma was collected from the blood samples following centrifugation, and stored at -80°C until analysis. […] The PK parameters, including area under the plasma concentration-time curve (AUC), maximum plasma concentration (Cmax), time to maximum concentration (tmax), and elimination half-life (t1/2) were determined by non-compartmental analysis using InnaPhase Kinetica 2000™ (InnaPhase Corp., Philadelphia, PA, USA). The linear-logarithmic trapezoidal method was used to calculate the AUC, and t1/2 λz was calculated by linear regression of the terminal slope of the logarithmic plasma concentration-time profile.

dogs = conditions: previously established; cited from earlier work
[2] = po, 500 mg, single oral dose 500 mg, n = 8
[3] = po, 750 mg, multiple oral dose of 750 mg, Day 1, n = 11
[4] = po, 750 mg, multiple oral dose of 750 mg, Day 6, n = 11
[5] = po, 750 mg, multiple oral dose of 750 mg, Day 28, n = 11
[6] = po, 750 mg, multiple oral dose of 750 mg, Day 56, n = 11
[7] = po, 750 mg, single oral dose 750 mg, n = 12
[8] = po, 850 mg, single oral dose 850 mg, n = 8

Question: Which results are given for `N#CC1(c2ccc(NC(=O)c3cccnc3NCc3ccncc3)cc2)CCCC1` [apatinib]?
Answer: CR, evaluable patients (advanced solid tumors; 250 mg cohort): 0; Disease control (%) CR+PR+SD (advanced solid tumors; 250 mg cohort): 66.7%; Disease control CR+PR+SD, patients (advanced solid tumors; 250 mg cohort): 2; PD, evaluable patients (advanced solid tumors; 250 mg cohort): 1; PR, evaluable patients (advanced solid tumors; 250 mg cohort): 1; CR, evaluable patients (advanced solid tumors; 500 mg cohort): 0; Disease control (%) CR+PR+SD (advanced solid tumors; 500 mg cohort): 66.7%; Disease control CR+PR+SD, patients (advanced solid tumors; 500 mg cohort): 6; PD, evaluable patients (advanced solid tumors; 500 mg cohort): 3; PR, evaluable patients (advanced solid tumors; 500 mg cohort): 2; CR, evaluable patients (advanced solid tumors; 750 mg cohort): 0; Disease control (%) CR+PR+SD (advanced solid tumors; 750 mg cohort): 100%; Disease control CR+PR+SD, patients (advanced solid tumors; 750 mg cohort): 11; PD, evaluable patients (advanced solid tumors; 750 mg cohort): 0; PR, evaluable patients (advanced solid tumors; 750 mg cohort): 2; CR, evaluable patients (advanced solid tumors; 850 mg cohort): 0; Disease control (%) CR+PR+SD (advanced solid tumors; 850 mg cohort): 90.9%; Disease control CR+PR+SD, patients (advanced solid tumors; 850 mg cohort): 10; PD, evaluable patients (advanced solid tumors; 850 mg cohort): 1; PR, evaluable patients (advanced solid tumors; 850 mg cohort): 2; CR, evaluable patients (advanced solid tumors; 1000 mg cohort): 0; Disease control (%) CR+PR+SD (advanced solid tumors; 1000 mg cohort): 66.7%; Disease control CR+PR+SD, patients (advanced solid tumors; 1000 mg cohort): 2; PD, evaluable patients (advanced solid tumors; 1000 mg cohort): 1; PR, evaluable patients (advanced solid tumors; 1000 mg cohort): 0; patients who achieved PR (advanced solid tumors; 22 assessable patients with gastric and colorectal cancer): 4; Disease control rate (advanced solid tumors; 22 assessable patients with gastric and colorectal cancer (n = 18)): 81%; CR, evaluable patients (advanced solid tumors; Total, n = 37): 0; Disease control CR+PR+SD, patients (advanced solid tumors; Total, n = 37): 31; PD, evaluable patients (advanced solid tumors; Total, n = 37): 6; Disease control (%) CR+PR+SD, disease control rate (advanced solid tumors; Total, n = 37, at 8 weeks): 83.8%; Duration of PR (advanced solid tumors; one GIST patient who failed imatinib): 24 months; PR, % of evaluable patients (advanced solid tumors; thirty-seven evaluable patients): 18.9%; in vivo efficacy compared to valatinib (xenograft): superior in vivo efficacy; time to steady-state conditions ([1]; 750 mg once daily, multiple dosing): ≤ 6 days; Cmax ([1]; oral, 750 mg, after a single dose of 750 mg, read-out: Cmax values, variation between patients): 926 to 4620 ng/mL; half-life ([1]; oral, constant over the dose levels 500-850 mg, read-out: elimination half-life of the terminal phase (t1/2 λz) (converted)): 9 h; AUC(0-t) [1, 2]: 11300 ng·h/mL; Cmax ([1]; po, 500 mg, single oral dose 500 mg, n = 8, read-out: Cmax, geometric mean): 1520 ng/mL; half-life ([1]; po, 500 mg, single oral dose 500 mg, n = 8, read-out: t1/2λz, mean (converted)): 8.1 h; Tmax [1, 2]: 3.5 h; AUC(0-t) [1, 3]: 19400 ng·h/mL; Cmax ([1]; po, 750 mg, multiple oral dose of 750 mg, Day 1, n = 11, read-out: Cmax, geometric mean): 2420 ng/mL; half-life ([1]; po, 750 mg, multiple oral dose of 750 mg, Day 1, n = 11, read-out: t1/2λz, mean (converted)): 8.9 h; Tmax [1, 3]: 3 h; AUC(0-t) [1, 4]: 25400 ng·h/mL; Cmax ([1]; po, 750 mg, multiple oral dose of 750 mg, Day 6, n = 11, read-out: Cmax, geometric mean): 2550 ng/mL; half-life ([1]; po, 750 mg, multiple oral dose of 750 mg, Day 6, n = 11, read-out: t1/2λz, mean (converted)): 11 h; Tmax [1, 4]: 4 h; AUC(0-t) [1, 5]: 19900 ng·h/mL; Cmax ([1]; po, 750 mg, multiple oral dose of 750 mg, Day 28, n = 11, read-out: Cmax, geometric mean): 2210 ng/mL; half-life ([1]; po, 750 mg, multiple oral dose of 750 mg, Day 28, n = 11, read-out: t1/2λz, mean (converted)): 11.3 h; Tmax [1, 5]: 4 h; AUC(0-t) [1, 6]: 15600 ng·h/mL; Cmax ([1]; po, 750 mg, multiple oral dose of 750 mg, Day 56, n = 11, read-out: Cmax, geometric mean): 1850 ng/mL; half-life ([1]; po, 750 mg, multiple oral dose of 750 mg, Day 56, n = 11, read-out: t1/2λz, mean (converted)): 8.3 h; Tmax [1, 6]: 3 h; AUC(0-t) [1, 7]: 18200 ng·h/mL; Cmax ([1]; po, 750 mg, single oral dose 750 mg, n = 12, read-out: Cmax, geometric mean): 2380 ng/mL; half-life ([1]; po, 750 mg, single oral dose 750 mg, n = 12, read-out: t1/2λz, mean (converted)): 9 h; Tmax [1, 7]: 3 h; AUC(0-t) [1, 8]: 22000 ng·h/mL; Cmax ([1]; po, 850 mg, single oral dose 850 mg, n = 8, read-out: Cmax, geometric mean): 2830 ng/mL; half-life ([1]; po, 850 mg, single oral dose 850 mg, n = 8, read-out: t1/2λz, mean (converted)): 9.1 h; Tmax [1, 8]: 4 h; maximum-tolerated dose (MTD) in dogs (dogs): above 30 mg/kg
